Converted amounts (≈) assume the structure as drawn. “Also recorded” adds a separate entry of the source.
How the values were obtained:
[1] = tested on: Acanthoscelides obtectus; assay: Comparative contact test (Table 15); type: in vivo, bean weevil (Acanthoscelides obtectus), imago; conditions: Acanthoscelides obtectus, 24 h
Experimental: (§1) The active ingredient is dissolved in a 1:2 mixture of oil and acetone; filter paper discs (Whatman No. 1, diameter 9 cm) are impregnated with the solutions of the corresponding stereoisomers and enantiomer-pairs, respectively. The acetone is allowed to evaporate, whereupon the insects are exposed to filter papers discs placed in Petri-dishes. Three parallels are used on each dose and 15 insects are placed into each Petri-dish. The percental mortality is determined after 24 hours. The corrected percent mortality is calculated by means of the Abbot Formula.
(§2) The comparative test of Ia, Ib and a 40:60 mixture of Ia:Ib is carried out on bean weevil (Acanthoscelides obtectus), flour-beetle, (Tribolium confusum), house fly (Musca domestica) and sheep maggot fly (Lucillia sericata). The test method described is Example 41.

[2] = tested on: A. matricariae; assay: Direct contact test on pupae (Table 26); type: in vivo
Experimental: Mature pupae of A. matricariae on paprika leaves in Petri-dishes are exposed to a direct spray of the active ingredients. Two or three days before emergence paprika leaves with parasitized pupae are used. The leaves are laid on moistened filter paper in a plastic Petri-dish.
Application of treatment: See Example 57.
The pieces of leaf are transferred after treatment to clean Petri-dish bottoms. The trays are stored in a climatic chamber at 20° C. temperature, 70% relative humidity and a light-dark cycle of 16-8 h. Surviving pupae hatch after 2-3 days. The numbers of hatched and dead pupae are counted.

[3] = tested on: Hyphantria cunea; assay: Topical test on fall webworm (Table 18); type: in vivo, fall wetworm (Hyphantria cunea), L7-L8 larvae; conditions: Hyphantria cunea, topical, 24 h
Experimental: The active ingredients are dissolved in 2-ethoxy-ethanol and the solutions are applied in the form of 0.2 μl droplets onto the back of fall wetworm (Hyphantria cunea) of L7 -L8 larvae stage. The treated worms are placed on strawberry leaves in Petri-dishes. The test is carried out by using […], 2 parallels and 10 insects for each dose. The killed worms are counted after 24 hours and the percental mortality rate is calculated.

[4] = tested on: Tribolium confusum; assay: Contact test, mixtures of Ia and Ib of various ratio (Table 13); type: in vivo, flour beetle (Tribolium confusum); conditions: Tribolium confusum, 24 h
Experimental: as §1
In Table 13 the insecticidal effect of mixtures of enantiomer-pairs Ia and Ib of various ratio is shown on flour beetle (Tribolium confusum). The test method is that disclosed in Example 43.

[5] = tested on: tribolium confusum; assay: Comparative contact test (Table 15); type: in vivo, flour-beetle (Tribolium confusum), imago; conditions: 24 h
Experimental: as §1, §2

[6] = tested on: Tetranychus urticae; assay: Potter Tower spray on mite-infested leaves (Table 19); type: in vivo, mites (Tetranychus urticae); conditions: Tetranychus urticae, 24 h, mortality after 24 hours; read-out: approx. LD50
Experimental: Leaves already infested with mites (Tetranychus urticae) were sprayed under Potter Tower. Mortality after 24 hours on the treated leaves was compared with the control.

[7] = tested on: Tribolium confusum; assay: Contact test on Tribolium confusum (Table 12); type: in vivo
Outline: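 Compound in 1:2 oil/acetone impregnated onto 9 cm filter paper discs; after acetone evaporation, 15 insects per Petri dish exposed by contact, three replicates per dose. Mortality read at 24 hours and corrected by Abbott's formula.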

[8] = tested on: Colorado potato beetle; assay: Topical test on Colorado potato beetle (Table 14); type: in vivo, Colorado potato beetle (Leptinotersa decemlineata), imago
Experimental: In Table 14 the activity on Colorado potato beetle is shown.
The test materials are dissolved in 2-ethoxyethanol (Cellosolve). One 0.3 μl drop of the solution is applied to the abdominal sterna of the imago. The treatment is carried out by using 2 parallels and 10 insects for each dose. […]

[9] = tested on: Musca domestica; assay: Filter paper disc contact test (Table 11); type: in vivo, house fly (Musca domestica); conditions: Musca domestica, 24 h
Outline: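 Stereoisomers in 1:2 oil/acetone were applied to 9 cm filter paper discs, the acetone evaporated, and discs placed in Petri dishes with 15 flies each, three replicates per dose. Mortality was scored at 24 h and corrected by Abbott's formula.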

[10] = tested on: T. confusum; assay: Activity as function of time, toxic symptoms (Table 16); type: in vivo, flour beetle (T. confusum), imagos
Outline: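 T. confusum imagos exposed in Petri dishes to filter-paper discs impregnated with isomer solutions in 1:2 oil/acetone, acetone evaporated; 3 replicates of 15 insects per dose. Insects lying on their backs counted at successive time points, expressed as percent.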

[11] = tested on: Lucillia sericata; assay: Comparative contact test (Table 15); type: in vivo, sheep maggot fly (Lucillia sericata), imago; set-up: key: % mortality after 24 h, Abbott-corrected; conditions: 1440 min
Experimental: as §1, §2

[12] = tested on: Musca domestica; assay: Comparative contact test (Table 15); type: in vivo, house fly (Musca domestica), imago; conditions: 24 h
Experimental: as §1, §2

CC1(C)[C@H](C(=O)O[C@H](C#N)c2cccc(Oc3ccccc3)c2)[C@@H]1C=C(Cl)Cl (relative stereo) [Ia]
mortality at 20 µg/disc ([1]; 0.02 mg/disc): 10% | mortality at 70 µg/disc ([1]; 0.07 mg/disc): 37% | mortality at 220 µg/disc ([1]; 0.22 mg/disc): 63% | mortality at 670 µg/disc ([1]; 0.67 mg/disc): 95% | mortality at 2000 µg/disc ([1]; 2.0 mg/disc): 100% | mortality at 6000 µg/disc ([1]; 6.0 mg/disc): 100% | Mortality % ([2]; 1 ppm): 0% | Mortality % ([2]; 5 ppm): 0% | Mortality % ([2]; 10 ppm): 12.5% | Mortality % ([2]; 33 ppm): 77.0% | mortality at 0.023 µg/disc ([3]; 0.023 (μg/disc)): 40% | mortality at 0.047 µg/disc ([3]; 0.047 (μg/disc)): 60% | mortality at 0.094 µg/disc ([3]; 0.094 (μg/disc)): 65% | mortality at 0.188 µg/disc ([3]; 0.188 (μg/disc)): 80% | mortality at 0.375 µg/disc ([3]; 0.375 (μg/disc)): 90% | mortality at 60 µg/disc ([4]; 0.06 mg/disc): 14% | mortality at 250 µg/disc ([4]; 0.25 mg/disc): 54% | mortality at 20 µg/disc ([4]; 0.02 mg/disc): 0% | mortality at 1000 µg/disc ([4]; 1.00 mg/disc): 100% | mortality at 20 µg/disc ([5]; 0.02 mg/disc): 0% | mortality at 70 µg/disc ([5]; 0.07 mg/disc): 18% | mortality at 220 µg/disc ([5]; 0.22 mg/disc): 51% | mortality at 670 µg/disc ([5]; 0.67 mg/disc): 100% | mortality at 2000 µg/disc ([5]; 2.0 mg/disc): 100% | mortality at 6000 µg/disc ([5]; 6.0 mg/disc): 100% | LC50 [6]: ~0.056 µg/mL (≈ 0.135 µM) | mortality at 330 µg/disc ([7]; Tribolium confusum, 24 h, 0.33 mg/disc): 65% | mortality at 1000 µg/disc ([7]; Tribolium confusum, 24 h, 1.00 mg/disc): 94% | mortality at 3000 µg/disc ([7]; Tribolium confusum, 24 h, 3.00 mg/disc): 100% | synergism between the members of the enantiomer-pair ([7]; in vivo): does not take place; also recorded: no similar synergism takes place | mortality at 0.05 µg/beetle ([8]; Leptinotarsa decemlineata, topical, read-out: 24 hours' mortality %, 0.05 μg/beetle): 50% | mortality at 0.1 µg/beetle ([8]; Leptinotarsa decemlineata, topical, read-out: 24 hours' mortality %, 0.10 μg/beetle): 55% | mortality at 0.2 µg/beetle ([8]; Leptinotarsa decemlineata, topical, read-out: 24 hours' mortality %, 0.20 μg/beetle): 75% | mortality at 0.4 µg/beetle ([8]; Leptinotarsa decemlineata, topical, read-out: 24 hours' mortality %, 0.40 μg/beetle): 80% | comparative activity ([8]; imago of Colorado potato beetle): more active than Ib | mortality at 40 µg/disc ([9]; 0.04 mg/disc): 44% | mortality at 110 µg/disc ([9]; 0.11 mg/disc): 84% | mortality at 330 µg/disc ([9]; 0.33 mg/disc): 100% | mortality at 1000 µg/disc ([9]; 1.00 mg/disc): 100% | mortality at 3000 µg/disc ([9]; 3.00 mg/disc): 100% | % of insects showing toxic symptoms ([10]; 30 minutes): 0% | % of insects showing toxic symptoms ([10]; 30 minutes, 0.33 mg/disc): 0% | % of insects showing toxic symptoms ([10]; 30 minutes, 1.00 mg/disc): 0% | % of insects showing toxic symptoms ([10]; 30 minutes, 3.00 mg/disc): 33% | % of insects showing toxic symptoms ([10]; 60 minutes): 0% | % of insects showing toxic symptoms ([10]; 60 minutes, 0.33 mg/disc): 0% | % of insects showing toxic symptoms ([10]; 60 minutes, 1.00 mg/disc): 16% | % of insects showing toxic symptoms ([10]; 60 minutes, 3.00 mg/disc): 88% | % of insects showing toxic symptoms ([10]; 120 minutes): 0% | % of insects showing toxic symptoms ([10]; 120 minutes, 0.33 mg/disc): 14% | % of insects showing toxic symptoms ([10]; 120 minutes, 1.00 mg/disc): 66% | % of insects showing toxic symptoms ([10]; 120 minutes, 3.00 mg/disc): 100% | % of insects showing toxic symptoms ([10]; 180 minutes): 10% | % of insects showing toxic symptoms ([10]; 180 minutes, 0.33 mg/disc): 49% | % of insects showing toxic symptoms ([10]; 180 minutes, 1.00 mg/disc): 100% | % of insects showing toxic symptoms ([10]; 180 minutes, 3.00 mg/disc): 100% | mortality ([11]; 0.02 mg/disc): 0 | mortality ([11]; 0.07 mg/disc): 30 | mortality ([11]; 0.22 mg/disc): 29 | mortality ([11]; 0.67 mg/disc): 57 | mortality ([11]; 2.0 mg/disc): 60 | mortality ([11]; 6.0 mg/disc): 65 | mortality at 20 µg/disc ([12]; 0.02 mg/disc): 36% | mortality at 70 µg/disc ([12]; 0.07 mg/disc): 63% | mortality at 220 µg/disc ([12]; 0.22 mg/disc): 88% | mortality at 670 µg/disc ([12]; 0.67 mg/disc): 100% | mortality at 2000 µg/disc ([12]; 2.0 mg/disc): 100% | mortality at 6000 µg/disc ([12]; 6.0 mg/disc): 100%

From patent publication US5110976A, “Insecticidal composition comprising more than one active ingredient” (priority 1985, dated 1992)
